The numbers were not newly measured in patent publication US20130292614A1, “F[…] AS […]” (3M INNOVATIVE PROPERTIES COMPANY, priority 2011, published 2013), which cites them from elsewhere.

The conditions of this data set: inhalation; 2.5 to 3 hour; cited from earlier work.

Consider `FC(F)(F)C1(F)OC1(F)F` (stereo not shown) [C3 perfluorooxirane], for which the “acute lethal concentration (ALC)” value was 200 ppm.
